The record followed here is patent US10730883B2 (AbbVie Inc., priority 2015, dated 2020).

Common to all, as to type: physicochemical
A short description of data set [1]: Chemical stability of solid state forms in closed vials at controlled temperature and relative humidity. The settings on record: general statement on the solid state form. The procedure: The Amorphous Freebase, however, is hygroscopic and can comprise as much as 12% by weight water at 25° C./90% relative humidity. Environmental controls potentially are required to ensure appropriate control of potency and water content during storage, dispensing, and handling of the Amorphous Freebase.
The Tartrate Hydrate, however, potentially will convert to an amorphous tartrate below 10% relative humidity, when heated, or when compressed or under shear.

Data set [2] in a line: Physical stability of solid state forms (dehydration, desolvation, conversion). As to conditions: for conversion upon drying: drying / ambient drying. As for the experimental part:
The Tartrate Hydrate dehydrated into Amorphous at low relative humidity and high temperature, e.g., <10% RH at 25° C. Shearing and compression potentially cause conversion to the amorphous tartrate, and therefore it is not suitable for compressing into tablet form. Additionally, the filter cake solidified during drying, resulting in the need for additional controls during drying.
In addition, Freebase Hydrate Form C can be grown into different particle sizes.
Freebase Anhydrate Form D can be manufactured only when the water content of the crystallization solvent is low, and will convert to Freebase Hydrate Form C in solutions at high water content. The manufacture of Freebase Anhydrate Form D thus requires strict control of water content. Freebase Anhydrate Form D is slow to crystallize, and difficult to manufacture in higher yield. […] Freebase Hydrate Form C will convert to Freebase Anhydrate Form D in a solution of ethyl acetate with low water content.
The resulting amorphous hydrochloride is hygroscopic. Yields obtained for each of the crystalline hydrochlorides generally have been in the 10% to 15% range.

Data set [3] can be described thus: Solid state accelerated stability study. As to conditions: for chemical stability: solid state accelerated stability study. As for the experimental part:
Samples (approximately 1 mg to 2 mg) of the solid state form were weighed into glass vials and tested as described below.

Another data set is described as follows: Equilibrium solubility.
A short description of data set [4]: Moisture sorption isotherm. As for the experimental part: Moisture vapor isotherm data were collected with a DVS Advantage (Surface Measurement Systems Ltd, Alperton, United Kingdom). The sample powder (5 mg to 20 mg) was loaded on a tared pan of the DVS Advantage. The moisture sorption isotherm data were collected from 30-0-90-0-30% relative humidity in 10% relative humidity intervals. For each step, the dm/dt criteria was 0.001% over 5 minutes, a minimum dm/dt time of 30 minutes, and a maximum dm/dt of 120 minutes. Data was collected isothermally at 25° C. with a nitrogen flow rate of 200 cm^3/minute. The post DVS sample was kept at approximately 30% relative humidity before PXRD analysis.

The nature of data set [5]: Hygroscopicity / moisture sorption isotherm of solid state forms. As to conditions: for hygroscopicity: general statement on the solid state form. The text has this: FIG. 6A is a moisture sorption isotherm corresponding to the Amorphous Freebase (via dehydration).
FIG. 6C is a moisture sorption isotherm corresponding to the Tartrate Hydrate.
FIG. 6D is a moisture sorption isotherm corresponding to the Freebase Anhydrate Form D.
In one embodiment, the Tartrate Hydrate has a moisture sorption isotherm profile showing a weight gain of about 1% to about 2% when relative humidity is increased from about 10% relative humidity to about 90% relative humidity at a temperature of 25° C.

Entries after “also recorded” stand apart in the source; their conditions may differ. Where a name gives a salt, the structure may show the parent alone.

Method for Equilibrium solubility: After equilibration, the mixtures were inspected to assure that the amount of excess solid was sufficient to permit re-characterization. […] The pH of aqueous suspensions was determined after equilibration. The solid phase was separated from the liquid phase by centrifugation at 3300 rpm at equilibration temperatures (i.e., 25° C. or 37° C.). The supernatant was then filtered (13 mm Acrodisc® syringe filter with 0.45μ GHP membrane, Pall® Life Sciences, Ann Arbor, Mich.) to discard the initial 2 mL (to saturate filter) and capture the last 1 mL for analysis. The filtrate was diluted as needed for quantification of the material studied by HPLC method (as detailed elsewhere herein). The physical form of the recovered solid was characterized by powder X-ray diffraction to examine whether or not phase change had occurred

For `CC[C@@H]1CN(C(=O)NCC(F)(F)F)C[C@@H]1c1cnc2cnc3[nH]ccc3n12` [L-Maleate Form AAA, (3S,4R)-3-ethyl-4-(3H-imidazo[1,2-a]pyrrolo[2,3-e]pyrazin-8-yl)-N-(2,2,2-trifluoroethyl)pyrrolidine-1-carboxamide], the chemical stability result in data set [1] was “less chemically stable”.

In the case of `CC[C@@H]1CN(C(=O)NCC(F)(F)F)C[C@@H]1c1cnc2cnc3[nH]ccc3n12` [Freebase Hydrate Form C, (3S,4R)-3-ethyl-4-(3H-imidazo[1,2-a]pyrrolo[2,3-e]pyrazin-8-yl)-N-(2,2,2-trifluoroethyl)pyrrolidine-1-carboxamide], the figures for the chemical stability entry in data set [1] and in data set [3] were “excellent chemical stability; also recorded: good chemical stability” and “acceptable”, respectively. Further, the “temperature up to which no dehydration occurs” value in data set [2] (drying) was “around 110 °C”. The physical stability result in data set [2] (general statement on the solid state form) was “excellent and good”. Also, in data set [2] (milling, compression), the “stability under mechanical processing” value is listed as “stable under mechanical processing”. The “Growth of degradation products” value in data set [3] (80/75 10 days, 50/75 6 weeks, 40/75 and 30/65 24 weeks, 25/60 12 months (Temp ° C./% RH)) is reported as “no growth of degradation products”. The “Change in attributes evaluated (description, crystal form, assay, impurities and water content)” value in data set [3] (storage conditions of the accelerated stability study) was “No material change”. Also, the figures for the Solubility in “Equilibrium solubility” (FasSIF (pH 6.5 at 37° C.)) and in the data set “Equilibrium solubility” (pH 1 at 25° C.) were 0.22 mg/mL and 55.3 mg/mL, respectively. Moreover, the hygroscopicity result in data set [4] (moisture sorption isotherm analysis, 25° C.) is given as “not hygroscopic”; in data set [5], “low hygroscopicity”.

Take `CCC1CN(C(=O)NCC(F)(F)F)CC1c1cnc2cnc3[nH]ccc3n12.Cl` (stereo not shown) [amorphous hydrochloride]: the hygroscopicity entry in data set [5] is “hygroscopic”.

For the molecule `CC[C@@H]1CN(C(=O)NCC(F)(F)F)C[C@@H]1c1cnc2cnc3[nH]ccc3n12` [Hydrochloride Solvate Form BB, (3S,4R)-3-ethyl-4-(3H-imidazo[1,2-a]pyrrolo[2,3-e]pyrazin-8-yl)-N-(2,2,2-trifluoroethyl)pyrrolidine-1-carboxamide], in data set [2], the conversion upon drying result was “convert to an amorphous hydrochloride upon ambient drying”.

For the molecule `CC[C@@H]1CN(C(=O)NCC(F)(F)F)C[C@@H]1c1cnc2cnc3[nH]ccc3n12` [Hydrochloride Solvate Form CC, (3S,4R)-3-ethyl-4-(3H-imidazo[1,2-a]pyrrolo[2,3-e]pyrazin-8-yl)-N-(2,2,2-trifluoroethyl)pyrrolidine-1-carboxamide], in data set [2], the conversion upon drying result was “convert to an amorphous hydrochloride upon ambient drying”.

For `CC[C@@H]1CN(C(=O)NCC(F)(F)F)C[C@@H]1c1cnc2cnc3[nH]ccc3n12` [Freebase Anhydrate Form D, (3S,4R)-3-ethyl-4-(3H-imidazo[1,2-a]pyrrolo[2,3-e]pyrazin-8-yl)-N-(2,2,2-trifluoroethyl)pyrrolidine-1-carboxamide], in data set [4] (90% relative humidity at 25° C.), the “Moisture sorption (reversibly sorbs up to)” value is “up to 1.8%”. In addition, the “water uptake (reversibly hygroscopic)” value in data set [5] (90% RH at 25° C.) is recorded as “up to 1.8%”. In data set [5], the hygroscopicity result was “reversibly hygroscopic”.

Take `CC[C@@H]1CN(C(=O)NCC(F)(F)F)C[C@@H]1c1cnc2cnc3[nH]ccc3n12` [L-Maleate Form BBB, (3S,4R)-3-ethyl-4-(3H-imidazo[1,2-a]pyrrolo[2,3-e]pyrazin-8-yl)-N-(2,2,2-trifluoroethyl)pyrrolidine-1-carboxamide]: the chemical stability entry in data set [1] is recorded as “less chemically stable”; in data set [3] (listed as L-maleate salt), “prone to chemical degradation”. Besides, the Degradation on storage entry in data set [3] (50° C./75% relative humidity (open and closed glass vials)) is recorded as “degraded to products that were not observed for the Freebase Hydrate Form C or the Tartrate Hydrate”.

In the case of `CC[C@@H]1CN(C(=O)NCC(F)(F)F)C[C@@H]1c1cnc2cnc3[nH]ccc3n12` [Hydrochloride Solvate Form AA, (3S,4R)-3-ethyl-4-(3H-imidazo[1,2-a]pyrrolo[2,3-e]pyrazin-8-yl)-N-(2,2,2-trifluoroethyl)pyrrolidine-1-carboxamide], in data set [2], the conversion upon drying result is “convert to an amorphous hydrochloride upon ambient drying”.

As a reminder, the Solubility is the concentration that dissolves in the medium under given conditions. A low value points to a poorly soluble substance.
